“And” between values parts separate entries of the source, which are not always exact repeats. Equal entries are not always repeated. Where two headings read alike, the source gives them in different places.
Legend:
[1] = biological target: Hsp90β (Homo sapiens, UniProt P08238); assay: Fluorescence polarization assay (FITC-GDA tracer displacement), Hsp90β; assay type: binding; conditions: for % Polarization to DMSO control: triplicate wells; for selectivity for Hsp90β: Hsp90β versus Hsp90α, from Kd values
Chain of Hsp90β (P08238 whole entry): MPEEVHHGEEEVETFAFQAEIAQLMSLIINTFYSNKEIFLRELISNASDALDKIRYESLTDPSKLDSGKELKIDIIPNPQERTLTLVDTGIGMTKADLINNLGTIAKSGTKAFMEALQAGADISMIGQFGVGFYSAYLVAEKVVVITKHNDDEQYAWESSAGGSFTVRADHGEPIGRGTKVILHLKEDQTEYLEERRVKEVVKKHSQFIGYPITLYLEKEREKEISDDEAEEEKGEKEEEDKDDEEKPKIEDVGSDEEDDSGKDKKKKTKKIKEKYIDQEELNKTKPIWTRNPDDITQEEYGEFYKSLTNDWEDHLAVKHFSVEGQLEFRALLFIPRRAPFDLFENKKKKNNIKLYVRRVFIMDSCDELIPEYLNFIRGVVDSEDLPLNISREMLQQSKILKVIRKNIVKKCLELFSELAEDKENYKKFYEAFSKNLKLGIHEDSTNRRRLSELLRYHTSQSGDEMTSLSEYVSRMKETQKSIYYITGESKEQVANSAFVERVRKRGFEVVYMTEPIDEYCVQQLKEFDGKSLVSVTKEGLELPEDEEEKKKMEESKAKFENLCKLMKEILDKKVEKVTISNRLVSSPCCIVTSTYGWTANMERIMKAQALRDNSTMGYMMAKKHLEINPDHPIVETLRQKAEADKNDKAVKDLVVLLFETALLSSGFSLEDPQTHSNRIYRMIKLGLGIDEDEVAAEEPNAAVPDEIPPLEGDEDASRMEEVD
Experimental: (§1) Compounds were tested in triplicate wells (1% DMSO final concentration). For each plate, wells containing buffer only (background), tracer in buffer only (low polarization control), and protein and tracer in buffer with 1% DMSO (high polarization control) were included. Plates were incubated at 4 °C with rocking for 24 h. […] Polarization values were correlated to % tracer bound and compound concentrations. The concentration at which the tracer was 50% displaced by the inhibitor was determined using Graphpad Prism.

[2] = biological target: Hsp90α (Homo sapiens, UniProt P07900); assay: Fluorescence polarization assay (FITC-GDA tracer displacement), Hsp90α; assay type: binding; conditions: for % Polarization to DMSO control: triplicate wells
Experimental: as §1

[3] = fluorescence polarization, apparent Kd, read-out: Kd Hsp90α
[4] = fluorescence polarization, apparent Kd, read-out: Kd Hsp90β

CC(C)c1cc(C(=O)N2Cc3ccccc3C2)c(O)c(CO)c1O [Compound 5]
Kd ([1]; Kd Hsp90β, fluorescence polarization, apparent Kd): 4270 nM | % Polarization to DMSO control ([1]; Suppl Table 5, 5 1 μM): 73.89% and 76.47% and 73.55% | % Polarization to DMSO control ([1]; Suppl Table 5, 5 5 μM): 48.11% and 44.50% and 46.91% | % Polarization to DMSO control ([1]; Suppl Table 5, 5 10 μM): 27.82% and 30.40% and 31.26% | % Polarization to DMSO control ([1]; Suppl Table 5, 5 25 μM): 13.21% and 21.12% and 17.17% | % Polarization to DMSO control ([1]; Suppl Table 5, 5 50 μM): 21.98% and 21.29%

CC(C)c1ccc(O)c(C(=O)N2Cc3ccccc3C2)c1 [Compound 1]
% Polarization to DMSO control ([2]; Suppl Table 10, 1 0.5 μM): 84.59% and 83.37% and 82.16% | % Polarization to DMSO control ([2]; Suppl Table 10, 1 1 μM): 70.63% and 71.84% and 71.69% | % Polarization to DMSO control ([2]; Suppl Table 10, 1 5 μM): 31.78% and 33.90% and 37.85% | % Polarization to DMSO control ([2]; Suppl Table 10, 1 10 μM): 22.83% and 17.67% and 25.25% | % Polarization to DMSO control ([2]; Suppl Table 10, 1 25 μM): 16.45% and 15.39% and 18.58% | % Polarization to DMSO control ([2]; Suppl Table 10, 1 50 μM): 11.45% and 12.05% and 8.56% | % Polarization to DMSO control ([2]; Suppl Table 10, 1 100 μM): 9.47% and 8.26% | Kd [2, 3]: 3.21 µM | selectivity for Hsp90β [1]: ~ 2 fold | % Polarization to DMSO control ([1]; Suppl Table 11, 1 0.5 μM): 68.22% and 73.53% and 68.55% | % Polarization to DMSO control ([1]; Suppl Table 11, 1 1 μM): 60.93% and 62.75% and 64.41% | % Polarization to DMSO control ([1]; Suppl Table 11, 1 5 μM): 23.80% and 23.30% and 19.99% | % Polarization to DMSO control ([1]; Suppl Table 11, 1 10 μM): 15.34% and 18.00% and 10.37% | % Polarization to DMSO control ([1]; Suppl Table 11, 1 25 μM): 12.53% and 4.40% and 5.73% | % Polarization to DMSO control ([1]; Suppl Table 11, 1 50 μM): 5.73% and 5.90% and 4.40% | % Polarization to DMSO control ([1]; Suppl Table 11, 1 100 μM): 8.22% and 4.90% and 9.38% | Kd [1, 4]: 1630 nM

CC(C)c1cc(C(=O)N2Cc3ccc(F)cc3C2)c(O)c2cnoc12 [Compound 6b]
% Polarization to DMSO control ([2]; Suppl Table 12, 6b 0.125 μM): 101. 64% and 98.69% and 98.03% | % Polarization to DMSO control ([2]; Suppl Table 12, 6b 0.5 μM): 97.54% and 93.76% and 98.36% | % Polarization to DMSO control ([2]; Suppl Table 12, 6b 1 μM): 98.19% and 97.05% and 96.39% | % Polarization to DMSO control ([2]; Suppl Table 12, 6b 3 μM): 87.85% and 82.27% and 73.25% | % Polarization to DMSO control ([2]; Suppl Table 12, 6b 10 μM): 66.68% and 53.88% and 63.89% | % Polarization to DMSO control ([2]; Suppl Table 12, 6b 25 μM): 41.57% and 41.90% and 42.23% | % Polarization to DMSO control ([2]; Suppl Table 12, 6b 75 μM): 20.07% and 24.50% and 20.73% | Kd [2, 3]: 18.2 µM | selectivity over Hsp90α and Grp94 ([1]; Hsp90β versus Hsp90α and Grp94): ~ 50 fold | % Polarization to DMSO control ([1]; Suppl Table 13, 6b 0.125 μM): 80.92% and 79.55% and 79.72% | % Polarization to DMSO control ([1]; Suppl Table 13, 6b 0.5 μM): 44.66% and 45.17% | % Polarization to DMSO control ([1]; Suppl Table 13, 6b 1 μM): 27.05% and 23.28% and 31.32% | Kd ([1]; fluorescence polarization, apparent Kd, value in nM, read-out: Kd Hsp90β): 180 nM | Kd [1, 4]: 440 nM

CC(C)c1cc(C(=O)N2Cc3ccccc3C2)c(O)cc1C=O [Compound 4]
Kd ([2]; Kd Hsp90α): 1.55 µM and 1.22 µM

CC(C)c1cc(C(=O)N2Cc3ccccc3C2)c(O)cc1CC#N [Compound 2]
Kd [2]: 2.28 ± 0.12 µM | % Polarization to DMSO control ([2]; Suppl Table 9, 2 0.1 μM): 95.62% and 98.23% and 93.53% | % Polarization to DMSO control ([2]; Suppl Table 9, 2 0.5 μM): 78.89% and 78.37% and 75.58% | % Polarization to DMSO control ([2]; Suppl Table 9, 2 1 μM): 66.18% and 68.79% and 67.22% | % Polarization to DMSO control ([2]; Suppl Table 9, 2 5 μM): 22.97% and 29.94% | Kd [1]: 970 nM | selectivity for Hsp90β [1]: ~ 2.5 fold | % Polarization to DMSO control ([1]; Suppl Table 8, 2 0.1 μM): 90.36% and 90.17% and 91.52% | % Polarization to DMSO control ([1]; Suppl Table 8, 2 0.5 μM): 65.62% and 68.90% and 70.45% | % Polarization to DMSO control ([1]; Suppl Table 8, 2 1 μM): 47.25% and 50.54% and 49.96% | % Polarization to DMSO control ([1]; Suppl Table 8, 2 5 μM): 12.84% and 16.90% and 23.47% | % Polarization to DMSO control ([1]; Suppl Table 8, 2 10 μM): 4.14% and 8.59% and 10.52%

COCc1cc(O)c(C(=O)N2Cc3ccccc3C2)cc1C(C)C [Compound 3]
Kd [2]: > 25 µM | binding to Hsp90α ([2]; at 10 μM): did not bind | Kd [1]: > 25000 nM | binding to Hsp90β ([1]; at 10 μM): did not bind

Reference: article PMC5789826, “Structure-guided design of an Hsp90β N-terminal isoform-selective inhibitor” (Nature Communications, 2018)
